# Test results taken from US6153740A, “cDNA encoding nucleoside transporter” (University of Alberta, priority 1997, dated 2000).
# “Also recorded” adds a separate entry of the source.
# B1: hCNT1a (Homo sapiens) (protein)
# chain: MENDPSRRRESISLTPVAKGLENMGADFLESLEGGQLPRSDLSPAEIRSSWSEAAPKPFSRWRNLQPALRARSFCREHMQLFRWIGTGLLCTGLSAFLLVACLLDFQRALALFVLTCVVLTFLGHRLLKRLLGPKLRRFLVKPQGHPRLLLWFKRGLALAAFLGLVLWLSLDTSQRPEQLVSFAGICVFVALLFACSKHHCAVSWRAVSWGLGLQFVLGLLVIRTEPGFIAFEWLGEQIRIFLSYTKAGSSFVFGEALVKDVFAFQVLPIIVFFSCVISVLYHVGLMQWVILKIAWLMQVTMGTTATETLSVAGNIFVSQTEAPLLIRPYLADMTLSEVHVVMTGGYATIAGSLLGAYISFGIDATSLIAASVMAAPCALALSKLVYPEVEESKFRREEGVKLTYGDAQNLIEAASTGAAISVKVVANIAANLIAFLAVLDFINAALSWLGDMVDIQGLSFQLICSYILRPVAFLMGVAWEDCPVVAELLGIKLFLNEFVAYQDLSKYKQRRLAGAEEWVGDRKQWISVRAEVLTTFALCGFANFSSIGIMLGGLTSMVPQRKSDFSQIVLRALFTGACVSLVNACMAGILYMPRGAEVDCMSLLNTTLSSSSFEIYQCCREAFQSVNPEFSPEALDNCCRFYNHTICAQ
# How the values were obtained:
# CNT1 [1] = molecular target: T1, CNT1 (Rattus norvegicus, UniProt Q62674); test: inhibition of CNT1-mediated nucleoside (uridine, AZT, ddC) transport in Xenopus oocytes; assay type: cell-based; settings: for effect on expressed uridine fluxes/transport: inhibitor 1 mM; for selective inhibition of uridine and thymidine fluxes (rCNT1): adenosine, cytidine, uridine>>guanosine, inosine
# T1 sequence (Q62674 1-648): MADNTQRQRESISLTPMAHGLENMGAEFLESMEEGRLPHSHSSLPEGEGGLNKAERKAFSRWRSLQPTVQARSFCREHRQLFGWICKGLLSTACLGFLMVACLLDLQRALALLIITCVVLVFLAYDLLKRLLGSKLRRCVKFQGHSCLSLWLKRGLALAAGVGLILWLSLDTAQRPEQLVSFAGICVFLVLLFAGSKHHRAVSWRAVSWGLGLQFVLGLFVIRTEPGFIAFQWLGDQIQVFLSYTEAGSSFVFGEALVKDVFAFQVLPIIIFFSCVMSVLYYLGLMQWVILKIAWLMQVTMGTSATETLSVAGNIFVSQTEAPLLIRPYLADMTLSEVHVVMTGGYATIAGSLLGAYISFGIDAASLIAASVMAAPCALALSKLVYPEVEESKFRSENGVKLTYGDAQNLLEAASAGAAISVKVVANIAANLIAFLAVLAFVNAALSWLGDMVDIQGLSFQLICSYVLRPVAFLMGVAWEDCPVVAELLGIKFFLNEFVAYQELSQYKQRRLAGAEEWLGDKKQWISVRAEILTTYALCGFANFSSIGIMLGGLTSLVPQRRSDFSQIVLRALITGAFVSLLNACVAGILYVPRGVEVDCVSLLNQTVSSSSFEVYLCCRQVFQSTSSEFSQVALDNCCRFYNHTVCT
# Description: (§1) Oocytes were injected with water or RNA transcribed in vitro from the nucleoside transporter cDNA (pQQH1). […] For panels c and d, the permeant concentration was 10 μM and competing nonradioactive nucleosides were present at a concentration of 1 mM.
# (§2) Remaining template was removed by digestion with RQ1 DNase. Oocytes were treated with collagenase to remove follicular layers (Huang et al, 1993) and injected with 10 ng of pQQH1 cRNA or water. […] At the end of the incubation, extracellular label was removed by six rapid ice-cold washes in the appropriate transport buffer. Individual oocytes were dissolved in 5% SDS for quantitation of oocyte-associated ^3 H by liquid scintillation counting (LS 6000 IC, Beckman).
# hCNT1a [2] = molecular target: T2, hCNT1a (Homo sapiens, UniProt O00337); test: inhibition of hCNT1a-mediated influx of [3H]uridine in Xenopus oocytes; settings: uridine 10 μM; for inhibition of uridine fluxes, hCNT1a: competitor 1 mM (FIG. 12A), guanosine also in FIG. 13
# T2 sequence (O00337 with tags, fused parts or gaps E34G/INS140V): B1 chain
# Description: H2 O, water-injected oocytes. Fluxes were not corrected for the contribution of endogenous transport activity.
# (§3) Defolliculated oocytes (Huang et al. 1993) were injected with either 10 nl of water containing 10 ng RNA transcript or 10 nl of water alone. Nucleoside uptake was measured after 3 d and was traced with the respective [^3 H] or [^14 C]nucleoside (Moravek Biochemicals)(5 μC 3H/ml, 1 μC 14C/ml). […] The transport buffer for adenosine influx experiments contained 1 μM deoxycoformycin to inhibit adenosine deaminase activity. Results are presented as means ±SEM for 10-12 individual oocytes. Kinetic constants were determined by non-linear regression analysis (ENZFITTER, Elsevier-Biosoft). Each experiment was performed at least twice on different batches of oocytes.
# hCNT1b [3] = molecular target: T3, hCNT1b (Homo sapiens, UniProt O00337); test: inhibition of hCNT1b-mediated influx of [3H]uridine in Xenopus oocytes; assay type: cell-based; settings: uridine 10 μM; for inhibition of uridine fluxes, hCNT1b: competitor 1 mM (FIG. 12B)
# T3 sequence (O00337 2-649 V189I/N409S/D521N): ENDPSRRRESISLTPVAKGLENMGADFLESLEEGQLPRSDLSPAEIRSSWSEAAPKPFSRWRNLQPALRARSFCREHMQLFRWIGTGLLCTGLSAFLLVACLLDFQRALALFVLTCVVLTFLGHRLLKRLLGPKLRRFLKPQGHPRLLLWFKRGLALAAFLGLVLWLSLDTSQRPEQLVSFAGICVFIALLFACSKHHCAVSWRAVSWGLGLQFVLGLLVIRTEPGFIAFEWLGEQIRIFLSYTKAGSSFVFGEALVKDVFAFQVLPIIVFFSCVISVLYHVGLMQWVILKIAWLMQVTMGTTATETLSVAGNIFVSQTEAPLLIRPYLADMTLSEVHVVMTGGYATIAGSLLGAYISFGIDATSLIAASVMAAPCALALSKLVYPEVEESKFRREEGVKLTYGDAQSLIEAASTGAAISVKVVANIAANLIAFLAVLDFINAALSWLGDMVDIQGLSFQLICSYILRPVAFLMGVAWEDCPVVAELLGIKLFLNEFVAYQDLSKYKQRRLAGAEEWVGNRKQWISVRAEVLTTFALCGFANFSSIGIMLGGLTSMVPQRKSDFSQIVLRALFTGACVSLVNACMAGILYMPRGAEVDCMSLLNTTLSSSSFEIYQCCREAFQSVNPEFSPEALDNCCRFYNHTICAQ
# Text: H2 O, water-injected oocytes.
# human erythrocytes = settings: cited from earlier work
# CNT1 [4] = molecular target: T1, CNT1; test: uptake/influx of radiolabelled nucleosides in Xenopus oocytes injected with pQQH1 (rat CNT1) cRNA; assay type: cell-based
# Description: as §1
# Oocytes injected with water or in vitro transcribed RNA from pQQH1 were incubated with radiolabeled permanent (10 μM) for 30 min (open columns) or 1 h (hatched columns) at 20° C. Each value represents the mean ±S. E. of 8-10 ooctyes.
# as §2
# [5] = tested on: human erythrocyte es transporter; settings: cited from earlier work
# hCNT1b [6] = molecular target: T3, hCNT1b; test: influx of radiolabelled nucleosides in Xenopus oocytes injected with hCNT1b RNA transcript; assay type: cell-based
# Description: as §3
# hCNT1a [7] = molecular target: T2, hCNT1a; test: influx of radiolabelled nucleosides in Xenopus oocytes injected with hCNT1a RNA transcript
# Description: Oocytes were injected with either water alone or water containing hCNT1a RNA transcript.
# Oocytes were injected with either water alone (.tangle-solidup.) or water containing hCNT1a RNA transcript (.smallcircle.,.circle-solid.).
# Adenosine, guanosine and AZT (10 μM) fluxes were compared in the same batch of oocytes injected either with water (open columns) or with RNA transcript for hCNT1a or rCNT1 (hatched and solid columns, respectively).
# as §3
# [8] = substrate: O=c1ccn([C@@H]2O[C@H](CO)[C@@H](O)[C@H]2O)c(=O)[nH]1; test: cells, lysate or membranes; settings: other: hCNT1a; 20.0 °C
Molecule,effect on expressed uridine fluxes/transport (CNT1 [1]),"inhibition of uridine fluxes, hCNT1a (hCNT1a [2])","inhibition of uridine fluxes, hCNT1b (hCNT1b [3])",selective inhibition of uridine and thymidine fluxes (rCNT1) (CNT1 [1]),also measured
"OC[C@@H]1CC[C@H](n2cnc3c(O)ncnc32)O1 [ddl, 2',3'-dideoxyinosine]",no effect,,,,
O=c1cc[nH]c(=O)[nH]1 [Uracil],no effect,,,,
O=c1ccn([C@@H]2O[C@H](COP(=O)(O)O)[C@@H](O)[C@H]2O)c(=O)[nH]1 [UMP],no effect,,,,
O=c1ccn([C@@H]2O[C@H](COP(=O)(O)OP(=O)(O)O)[C@@H](O)[C@H]2O)c(=O)[nH]1 [UDP],no effect,,,,
Nc1ccn([C@@H]2O[C@H](CO)[C@@H](O)[C@H]2O)c(=O)n1 [cytidine],,inhibited,inhibited,selective inhibition,
Cc1cn([C@H]2C[C@H](O)[C@@H](CO)O2)c(=O)[nH]c1=O [thymidine],,inhibited,inhibited,selective inhibition,
"Nc1ccn([C@H]2CC[C@@H](CO)O2)c(=O)n1 [ddC, 2',3'-dideoxycytidine]",,,,,"inhibition of hCNT1a-mediated influx of uridine (hCNT1a [2]; analog 5 mM (FIG. 12A)): inhibited; inhibition of hCNT1b-mediated influx of uridine (hCNT1b [3]; analog 5 mM (FIG. 12B)): inhibited; rate of entry into human erythrocytes relative to those of thymidine and cytidine (human erythrocytes): < 2%; CNT1-mediated uptake/transport (CNT1 [4]; 10 μM permeant): large increases; Na+ dependence of initial rate of expressed uptake (CNT1 [4]; 10 μM, 10-min flux): 93%; Vmax (CNT1 [4]; rat CNT1, permeant = labelled substance): 20 pmol/oocyte.min^-1; Km ([5]; Domin et al, 1993): 23 mM; transport by equilibrative nucleoside transporters [5]: low affinity es substrate; IC50 (CNT1 [1]): < 1000 µM"
O=c1ccn([C@@H]2O[C@H](COP(=O)(O)OP(=O)(O)OP(=O)(O)O)[C@@H](O)[C@H]2O)c(=O)[nH]1 [UTP],no effect,,,,
"Nc1nc2c(ncn2[C@H]2CC[C@@H](CO)O2)c(=O)[nH]1 [ddG, 2',3'-dideoxyguanosine]",no effect,,,,
Nc1nc2c(ncn2[C@@H]2O[C@H](CO)[C@@H](O)[C@H]2O)c(=O)[nH]1 [guanosine],,not and not inhibited,not,">>guanosine, inosine","fluxes, hCNT1b (results not shown) (hCNT1b [6]): very low guanosine fluxes; permeant quality, hCNT1 (hCNT1a [7]): poor CNT1 permeant; also recorded: poor hCNT1 permeants; mediated flux, hCNT1a (hCNT1a [7]; 10 μM permeant (FIG. 14)): 0.06±0.01 pmol/oocyte.10 min^-1; mediated flux, rCNT1 (CNT1 [4]; 10 μM permeant (FIG. 14)): 0.05±0.01 pmol/oocyte.10 min^-1"
OC[C@H]1O[C@@H](n2cnc3c(O)ncnc32)[C@H](O)[C@@H]1O [inosine],,not,not,">>guanosine, inosine",
B1,,,,,Km [8]: 0.045 ± 0.008 mM
